Legend:
[1] = tested on: prickly sida (Sida spinosa L.); test: Test Example 1: foliar treatment, growth inhibition rate, prickly sida; assay type: in vivo; details: visually observed 17th to 23rd day after application
Description: (§1) Upland field soil was put into a 1/170,000 hectare pot, and seeds of various plants were sown. When the respective plants reached predetermined leaf stage ((1) barnyardgrass (Echinochloa crus-galli L.); 0.8 to 2.5 leaf stage, (2) crabgrass (Digitaria sanguinalis L.): 0.5 to 3.0 leaf stage, (3) greenfoxtail (Setaria viridis L.): 1.0 to 3.0 leaf stage, (4) redroot pigweed (Amaranthus retroflexus L.): cotyledon stage to 2.0 leaf stage, (5) prickly sida (Sida spinosa L.): cotyledon stage to 1.1 leaf stage, (6) velvetleaf (Abutilon theophrasti MEDIC.): cotyledon stage to 1.5 leaf stage, (7) rice (Oryza sativa L.): 1.0 to 2.5 leaf stage, (8) wheat (Triticum spp.): 1.7 to 3.4 leaf stage, (9) corn (Zea mays L.): 2.0 to 3.5 leaf stage, and (10) soybean (Glycine max Merr.): primary leaf stage to 0.3 leaf stage), wettable powders or emulsifiable concentrates of the compounds of the present invention prepared in accordance with a conventional preparation method, were weighed so that the active ingredients became the prescribed amounts, and diluted with water in an amount corresponding to 500 liter per 1 hectare. 0.1 vol % of an agricultural spreader was further added to the respective diluted liquids, followed by foliar treatment with a small sprayer.
(§2) On the 17th to 23rd day after application, the state of growth of the respective plants was visually observed, and the herbicidal effect was evaluated in accordance with a growth inhibition rate (%) of 0 (equivalent to the non-treated area) to 100% (complete kill).

[2] = tested on: velvetleaf (Abutilon theophrasti MEDIC.); test: Test Example 1: foliar treatment, growth inhibition rate, velvetleaf; assay type: in vivo; details: visually observed 17th to 23rd day after application; for pest or weed control at 31 g/ha: Abutilon theophrasti
Description: as §1, §2

prickly sida = test: Test Example 2: soil application on the day after sowing, growth inhibition rate, prickly sida; assay type: in vivo, Sida spinosa L.; details: 250 g/ha active ingredient, observed on 19th to 24th day; for inhibition at 250 g/ha: Sida spinosa
Description: (§3) Upland field soil was put into a 1/170,000 hectare pot, and seeds of various plants (barnyardgrass, crabgrass, greenfoxtail, redroot pigweed, prickly sida, velvetleaf, rice, wheat, corn and soybean) were sown. On the day after sowing, wettable powders or emulsifiable concentrates of the compounds of the present invention prepared in accordance with a conventional preparation method, were weighed so that the active ingredients became the prescribed amounts, and diluted with water in an amount corresponding to 500 liter per 1 hectare, followed by soil application with a small sprayer. On the 19th to 24th day after the application, the state of growth of the respective plants was visually observed, and the herbicidal effect was evaluated in accordance with a growth inhibition rate (%) of from 0 (equivalent to the non-treated area) to 100% (complete kill).

[3] = tested on: soybean (Glycine max Merr.); test: Test Example 1: foliar treatment, growth inhibition rate, soybean; assay type: in vivo; details: visually observed 17th to 23rd day after application
Description: as §1, §2

crabgrass = test: Test Example 2: soil application on the day after sowing, growth inhibition rate, crabgrass; assay type: in vivo, Digitaria sanguinalis L.; details: 250 g/ha active ingredient, observed on 19th to 24th day; for inhibition at 250 g/ha: Digitaria sanguinalis
Description: as §3

rice (Oryza sativa L.) = test: Test Example 1: foliar treatment, growth inhibition rate, rice; assay type: in vivo; details: visually observed 17th to 23rd day after application; for pest or weed control at 31 g/ha: Oryza sativa
Description: as §1, §2

rice = test: Test Example 2: soil application on the day after sowing, growth inhibition rate, rice; assay type: in vivo, Oryza sativa L.; details: 250 g/ha active ingredient, observed on 19th to 24th day; for inhibition at 250 g/ha: Oryza sativa
Description: as §3

greenfoxtail = test: Test Example 2: soil application on the day after sowing, growth inhibition rate, greenfoxtail; assay type: in vivo, Setaria viridis L.; details: 250 g/ha active ingredient, observed on 19th to 24th day; for inhibition at 250 g/ha: Setaria viridis
Description: as §3

wheat = test: Test Example 2: soil application on the day after sowing, growth inhibition rate, wheat; assay type: in vivo, Triticum spp.; details: Triticum aestivum, 250 g/ha active ingredient, observed on 19th to 24th day
Description: as §3

wheat (Triticum spp.) = test: Test Example 1: foliar treatment, growth inhibition rate, wheat; assay type: in vivo; details: visually observed 17th to 23rd day after application; for pest or weed control at 31 g/ha: Triticum
Description: as §1, §2

redroot pigweed = test: Test Example 2: soil application on the day after sowing, growth inhibition rate, redroot pigweed; assay type: in vivo, Amaranthus retroflexus L.; details: 250 g/ha active ingredient, observed on 19th to 24th day; for inhibition at 250 g/ha: Amaranthus retroflexus
Description: as §3

velvetleaf = test: Test Example 2: soil application on the day after sowing, growth inhibition rate, velvetleaf; assay type: in vivo, Abutilon theophrasti MEDIC.; details: 250 g/ha active ingredient, observed on 19th to 24th day; for inhibition at 250 g/ha: Abutilon theophrasti
Description: as §3

corn = test: Test Example 2: soil application on the day after sowing, growth inhibition rate, corn; assay type: in vivo, Zea mays L.; details: 250 g/ha active ingredient, observed on 19th to 24th day; for inhibition at 250 g/ha: Zea mays
Description: as §3

[4] = tested on: barnyardgrass (Echinochloa crus-galli L.); test: Test Example 1: foliar treatment, growth inhibition rate, barnyardgrass; assay type: in vivo; details: visually observed 17th to 23rd day after application; for pest or weed control at 31 g/ha: Echinochloa crus-galli
Description: as §1, §2

[5] = tested on: crabgrass (Digitaria sanguinalis L.); test: Test Example 1: foliar treatment, growth inhibition rate, crabgrass; assay type: in vivo; details: visually observed 17th to 23rd day after application; for pest or weed control at 31 g/ha: Digitaria sanguinalis
Description: as §1, §2

barnyardgrass = test: Test Example 2: soil application on the day after sowing, growth inhibition rate, barnyardgrass; assay type: in vivo, Echinochloa crus-galli L.; details: 250 g/ha active ingredient, observed on 19th to 24th day; for inhibition at 250 g/ha: Echinochloa crus-galli
Description: as §3

corn (Zea mays L.) = test: Test Example 1: foliar treatment, growth inhibition rate, corn; assay type: in vivo; details: visually observed 17th to 23rd day after application; for pest or weed control at 31 g/ha: Zea mays
Description: as §1, §2

[6] = tested on: greenfoxtail (Setaria viridis L.); test: Test Example 1: foliar treatment, growth inhibition rate, greenfoxtail; assay type: in vivo; details: visually observed 17th to 23rd day after application; for pest or weed control at 31 g/ha: Setaria viridis
Description: as §1, §2

[7] = tested on: redroot pigweed (Amaranthus retroflexus L.); test: Test Example 1: foliar treatment, growth inhibition rate, redroot pigweed; assay type: in vivo; details: visually observed 17th to 23rd day after application
Description: as §1, §2

soybean = test: Test Example 2: soil application on the day after sowing, growth inhibition rate, soybean; assay type: in vivo, Glycine max Merr.; details: 250 g/ha active ingredient, observed on 19th to 24th day
Description: as §3

## CCSC(=O)Oc1c(C(=O)c2ccc(S(C)(=O)=O)c(OCCOC)c2C)cnn1CC [Compound No. 16, 5-(ethylthio)carbonyloxy-1-ethylpyrazol-4-yl 3-(2-methoxyethoxy)-2-methyl-4-(methylsulfonyl)phenyl ketone]
[1]; 31 g/ha active ingredient
  Growth inhibition rate (%) Prickly sida: 40%
[2]; 31 g/ha active ingredient
  pest or weed control at 31 g/ha: 100%
Prickly sida
  inhibition at 250 g/ha: 10%
[3]; 31 g/ha active ingredient
  Growth inhibition rate (%) Soybean: 95%
crabgrass
  inhibition at 250 g/ha: 100%
Rice (Oryza sativa L.); 31 g/ha active ingredient
  pest or weed control at 31 g/ha: 90%
rice
  inhibition at 250 g/ha: 98%
greenfoxtail
  inhibition at 250 g/ha: 98%
wheat
  inhibition at 250 g/ha: 0%
Wheat (Triticum spp.); 31 g/ha active ingredient
  pest or weed control at 31 g/ha: 0%
Redroot pigweed
  inhibition at 250 g/ha: 100%
velvetleaf
  inhibition at 250 g/ha: 0%
corn
  inhibition at 250 g/ha: 0%
[4]; 31 g/ha active ingredient
  pest or weed control at 31 g/ha: 100%
[5]; 31 g/ha active ingredient
  pest or weed control at 31 g/ha: 100%
barnyardgrass
  inhibition at 250 g/ha: 100%
Corn (Zea mays L.); 31 g/ha active ingredient
  pest or weed control at 31 g/ha: 0%
[6]; 31 g/ha active ingredient
  pest or weed control at 31 g/ha: 100%

## CCSC(=O)Oc1c(C(=O)c2ccc(S(C)(=O)=O)c(S(C)(=O)=O)c2Cl)cnn1C [compound 224]
[1]; 63 g/ha active ingredient
  Growth inhibition rate (%) Prickly sida: 70%
[2]; 63 g/ha active ingredient
  Growth inhibition rate (%) Velvetleaf: 60%
Prickly sida
  Growth inhibition rate (%) Prickly sida: 75%
[3]; 63 g/ha active ingredient
  Growth inhibition rate (%) Soybean: 100%
crabgrass
  Growth inhibition rate (%) Crabgrass: 100%
Rice (Oryza sativa L.); 63 g/ha active ingredient
  Growth inhibition rate (%) Rice: 20%
[7]; 63 g/ha active ingredient
  Growth inhibition rate (%) redroot pigweed: 95%
rice
  Growth inhibition rate (%) Rice: 98%
greenfoxtail
  Growth inhibition rate (%) Greenfoxtail: 98%
soybean
  Growth inhibition rate (%) Soybean: 50%
Wheat (Triticum spp.); 63 g/ha active ingredient
  Growth inhibition rate (%) Wheat: 0%
Redroot pigweed
  Growth inhibition rate (%) redroot pigweed: 100%
velvetleaf
  Growth inhibition rate (%) Velvetleaf: 70%
corn
  Growth inhibition rate (%) Corn: 10%
[4]; 63 g/ha active ingredient
  Growth inhibition rate (%) Barnyardgrass: 95%
[5]; 63 g/ha active ingredient
  Growth inhibition rate (%) Crabgrass: 60%
barnyardgrass
  Growth inhibition rate (%) Barnyardgrass: 100%
Corn (Zea mays L.); 63 g/ha active ingredient
  Growth inhibition rate (%) Corn: 0%
[6]; 63 g/ha active ingredient
  Growth inhibition rate (%) Greenfoxtail: 70%

## CCSC(=O)Oc1c(C(=O)c2ccc(S(C)(=O)=O)c(C(=O)OC)c2C)cnn1CC [Compound No. 2, 1-ethyl-5-(ethylthio)carbonyloxypyrazol-4-yl 3-(methoxycarbonyl)-2-methyl-4-(methylsulfonyl)phenyl ketone]
[1]; 31 g/ha active ingredient
  Growth inhibition rate (%) Prickly sida: 95%
[2]; 31 g/ha active ingredient
  pest or weed control at 31 g/ha: 95%
Prickly sida
  inhibition at 250 g/ha: 95%
crabgrass
  inhibition at 250 g/ha: 100%
Rice (Oryza sativa L.); 31 g/ha active ingredient
  pest or weed control at 31 g/ha: 95%
[7]; 31 g/ha active ingredient
  Growth inhibition rate (%) redroot pigweed: 95%
rice
  inhibition at 250 g/ha: 100%
greenfoxtail
  inhibition at 250 g/ha: 98%
wheat
  inhibition at 250 g/ha: 40%
Wheat (Triticum spp.); 31 g/ha active ingredient
  pest or weed control at 31 g/ha: 30%
Redroot pigweed
  inhibition at 250 g/ha: 100%
velvetleaf
  inhibition at 250 g/ha: 60%
corn
  inhibition at 250 g/ha: 0%
[4]; 31 g/ha active ingredient
  pest or weed control at 31 g/ha: 95%
[5]; 31 g/ha active ingredient
  pest or weed control at 31 g/ha: 90%
barnyardgrass
  inhibition at 250 g/ha: 100%
Corn (Zea mays L.); 31 g/ha active ingredient
  pest or weed control at 31 g/ha: 10%
[6]; 31 g/ha active ingredient
  pest or weed control at 31 g/ha: 100%

## CCCSC(=O)Oc1c(C(=O)c2ccc(S(C)(=O)=O)c(OCCOC)c2C)cnn1CC [compound 235]
[1]; 31 g/ha active ingredient
  Growth inhibition rate (%) Prickly sida: 50%
[2]; 31 g/ha active ingredient
  Growth inhibition rate (%) Velvetleaf: 100%
Prickly sida
  Growth inhibition rate (%) Prickly sida: 98%
[3]; 31 g/ha active ingredient
  Growth inhibition rate (%) Soybean: 100%
crabgrass
  Growth inhibition rate (%) Crabgrass: 100%
Rice (Oryza sativa L.); 31 g/ha active ingredient
  Growth inhibition rate (%) Rice: 90%
[7]; 31 g/ha active ingredient
  Growth inhibition rate (%) redroot pigweed: 100%
rice
  Growth inhibition rate (%) Rice: 100%
greenfoxtail
  Growth inhibition rate (%) Greenfoxtail: 100%
soybean
  Growth inhibition rate (%) Soybean: 0%
Wheat (Triticum spp.); 31 g/ha active ingredient
  Growth inhibition rate (%) Wheat: 40%
Redroot pigweed
  Growth inhibition rate (%) redroot pigweed: 100%
velvetleaf
  Growth inhibition rate (%) Velvetleaf: 20%
corn
  Growth inhibition rate (%) Corn: 0%
[4]; 31 g/ha active ingredient
  Growth inhibition rate (%) Barnyardgrass: 100%
[5]; 31 g/ha active ingredient
  Growth inhibition rate (%) Crabgrass: 100%
barnyardgrass
  Growth inhibition rate (%) Barnyardgrass: 100%
Corn (Zea mays L.); 31 g/ha active ingredient
  Growth inhibition rate (%) Corn: 30%
[6]; 31 g/ha active ingredient
  Growth inhibition rate (%) Greenfoxtail: 100%

Reference: patent publication US8030498B2, “Benzoylpyrazole compounds and herbicides containing them” (Ishihara Sangyo Kaisha, Ltd., priority 2005, dated 2011)
